Reference: PubChem BioAssay AID1259411 (Chemical Carcinogenesis Research Information System (CCRIS), 2018)
Active and inactive are the calls of the source. The rule behind the calls is not given here.

System: rodent carcinogenicity bioassays, tumor incidence
Assay: CCRIS carcinogenicity studies
How it was run: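 NCI-built, expert-reviewed records of carcinogenicity and related test outcomes (mutagenicity, tumor promotion/inhibition) compiled from published and report sources, historical span 1985-2011, not updated.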

## N#[N+]c1ccc(O)cc1
Species: MOUSE, Strain/Sex: SWISS/FEMALE, Route: SUBCUTANEOUS, Dose: 0, 2 UG 1/WK FOR 36 WK (STUDY DURATION: 120 WK), Tumor Site: Type of Lesion: SUBCUTANEOUS TISSUE: TUMOR
  carcinogen call: active; positive
Species: MOUSE, Strain/Sex: SWISS/FEMALE, Route: SUBCUTANEOUS, Dose: 0, 10 UG 1/WK FOR 2 WK (STUDY DURATION: 130 WK)
  carcinogen call: inactive; negative
Species: MOUSE, Strain/Sex: SWISS/MALE, Route: SUBCUTANEOUS, Dose: 0, 2 UG 1/WK FOR 36 WK (STUDY DURATION: 110 WK), Tumor Site: Type of Lesion: SUBCUTANEOUS TISSUE: TUMOR
  carcinogen call: active; positive
Species: MOUSE, Strain/Sex: SWISS/MALE, Route: SUBCUTANEOUS, Dose: 0, 10 UG 1/WK FOR 2 WK (STUDY DURATION: 130 WK)
  carcinogen call: inactive; negative

## [P]#[In]
Species: MOUSE, Strain/Sex: B6C3F1/FEMALE, Route: INHALATION, Dose: 0, 0.03, 0.1, 0.3 MG/M3 AEROSOL FOR 6 HR/D 5 D/WK FOR 105 WK (CONTROL AND LOW DOSE GROUPS) OR 21 WK (MID AND HIGH DOSE G, Dose: 0, 0.03, 0.1, 0.3 MG/M3 AEROSOL FOR 6 HR/D 5 D/WK FOR 105 WK (CONTROL AND LOW DOSE GROUPS) OR 21 WK (MID AND HIGH DOSE G, Tumor Site: Type of Lesion: LIVER: HEPATOCELLULAR ADENOMA, HEPATOCELLULAR CARCINOMA, HEPATOCELLULAR ADENOMA OR CARCINOMA, LUNG: ALVEOLAR/BRONCHIOLAR
  carcinogen call: active; positive
Species: MOUSE, Strain/Sex: B6C3F1/MALE, Route: INHALATION, Dose: 0, 0.03, 0.1, 0.3 MG/M3 AEROSOL FOR 6 HR/D 5 D/WK FOR 105 WK (CONTROL AND LOW DOSE GROUPS) OR 21 WK (MID AND HIGH DOSE G, Dose: 0, 0.03, 0.1, 0.3 MG/M3 AEROSOL FOR 6 HR/D 5 D/WK FOR 105 WK (CONTROL AND LOW DOSE GROUPS) OR 21 WK (MID AND HIGH DOSE G, Tumor Site: Type of Lesion: LIVER: HEPATOCELLULAR ADENOMA, HEPATOCELLULAR CARCINOMA, HEPATOCELLULAR ADENOMA OR CARCINOMA, LUNG: ALVEOLAR/BRONCHIOLAR
  carcinogen call: active; positive
Species: RAT, Strain/Sex: F344/FEMALE, Route: INHALATION, Dose: 0, 0.03, 0.1, 0.3 MG/M3 AEROSOL FOR 6 HR/D 5 D/WK FOR 105 WK (CONTROL AND LOW DOSE GROUPS) OR 22 WK (MID AND HIGH DOSE G, Dose: 0, 0.03, 0.1, 0.3 MG/M3 AEROSOL FOR 6 HR/D 5 D/WK FOR 105 WK (CONTROL AND LOW DOSE GROUPS) OR 22 WK (MID AND HIGH DOSE G, Tumor Site: Type of Lesion: ADRENAL MEDULLA: BENIGN PHEOCHROMOCYTOMA, LUNG: ALVEOLAR/BRONCHIOLAR ADENOMA, ALVEOLAR/BRONCHIOLAR CARCINOMA, ALVEOLAR/B
  carcinogen call: active; positive
Species: RAT, Strain/Sex: F344/MALE, Route: INHALATION, Dose: 0, 0.03, 0.1, 0.3 MG/M3 AEROSOL FOR 6 HR/D 5 D/WK FOR 105 WK (CONTROL AND LOW DOSE GROUPS) OR 22 WK (MID AND HIGH DOSE G, Dose: 0, 0.03, 0.1, 0.3 MG/M3 AEROSOL FOR 6 HR/D 5 D/WK FOR 105 WK (CONTROL AND LOW DOSE GROUPS) OR 22 WK (MID AND HIGH DOSE G, Tumor Site: Type of Lesion: ADRENAL MEDULLA: BENIGN PHEOCHROMOCYTOMA, BENIGN OR MALIGNANT PHEOCHROMOCYTOMA, LUNG: ALVEOLAR/BRONCHIOLAR ADENOMA, ALVE
  carcinogen call: active; positive

## O=S(=O)(O)NC1CCCCC1
Species: MONKEY, Strain/Sex: CYNOMOLGUS, RHESUS, AFRICAN GREEN/MALE, FEMALE, Route: ORAL, Dose: 0, 100, 500 MG/KG IN DIET FOR 24 YR (STUDY DURATION: 24 YR), Dose: 0, 100, 500 MG/KG IN DIET FOR 24 YR (STUDY DURATION: 24 YR)
  carcinogen call: inactive; negative
Species: RAT, Strain/Sex: ALBINO/MALE,FEMALE, Route: SUBCUTANEOUS, Dose: 5, 15% IN AQ SOLN 3/WK FOR 85 OR 107 WK, Tumor Site: Type of Lesion: INJECTION SITE: FIBROSARCOMA
  carcinogen call: active; positive
Species: RAT, Strain/Sex: SPRAGUE-DAWLEY/MALE,FEMALE, Route: ORAL, Dose: 2, 5% IN DIET PRENATALLY AND FOR LIFE
  carcinogen call: inactive; negative

## C=CC(=C)C
Species: MOUSE, Strain/Sex: B6C3F1/MALE, Route: INHALATION, Dose: 0, 10, 70, 280, 700, 2200 PPM 8 HR/D 5 D/WK FOR 80 WK (STUDY DURATION: 104 WK), Dose: 0, 10, 70, 280, 700, 2200 PPM 8 HR/D 5 D/WK FOR 80 WK (STUDY DURATION: 104 WK), Tumor Site: Type of Lesion: LUNG: ALVEOLAR/BRONCHIOLAR ADENOMA OR CARCINOMA, LIVER: HEPATOCELLULAR ADENOMA OR CARCINOMA, HARDERIAN GLAND: ADENOMA, Tumor Site: Type of Lesion: LUNG: ALVEOLAR/BRONCHIOLAR ADENOMA OR CARCINOMA, LIVER: HEPATOCELLULAR ADENOMA OR CARCINOMA, HARDERIAN GLAND: ADENOMA
  carcinogen call: active; positive
Species: MOUSE, Strain/Sex: B6C3F1/MALE, Route: INHALATION, Dose: 0, 70, 140, 2200 PPM 8 HR/D 5 D/WK FOR 40 WK (STUDY DURATION: 104 WK), Dose: 0, 70, 140, 2200 PPM 8 HR/D 5 D/WK FOR 40 WK (STUDY DURATION: 104 WK), Tumor Site: Type of Lesion: LUNG: ALVEOLAR/BRONCHIOLAR ADENOMA OR CARCINOMA, LIVER: HEPATOCELLULAR ADENOMA OR CARCINOMA, HARDERIAN GLAND: ADENOMA, Tumor Site: Type of Lesion: LUNG: ALVEOLAR/BRONCHIOLAR ADENOMA OR CARCINOMA, LIVER: HEPATOCELLULAR ADENOMA OR CARCINOMA, HARDERIAN GLAND: ADENOMA
  carcinogen call: active; positive
Species: MOUSE, Strain/Sex: B6C3F1/MALE, Route: INHALATION, Dose: 0, 70, 220, 700, 2200, 7000 PPM 6 HR/D 5 D/WK FOR 26 WK FOLLOWED BY A 26-WK RECOVERY PERIOD (STUDY DURATION: 52 WK), Dose: 0, 70, 220, 700, 2200, 7000 PPM 6 HR/D 5 D/WK FOR 26 WK FOLLOWED BY A 26-WK RECOVERY PERIOD (STUDY DURATION: 52 WK), Tumor Site: Type of Lesion: LIVER: ADENOMA OR CARCINOMA, LUNG: ALVEOLAR/BRONCHIOLAR ADENOMA OR CARCINOMA, FORESTOMACH: PAPILLOMA OR CARCINOMA, HARDE, Tumor Site: Type of Lesion: LIVER: ADENOMA OR CARCINOMA, LUNG: ALVEOLAR/BRONCHIOLAR ADENOMA OR CARCINOMA, FORESTOMACH: PAPILLOMA OR CARCINOMA, HARDE
  carcinogen call: active; positive
Species: MOUSE, Strain/Sex: B6C3F1/MALE, Route: INHALATION, Dose: 0, 280 PPM 8 HR/D 5 D/WK FOR 20 WK (STUDY DURATION: 104 WK), Tumor Site: Type of Lesion: HARDERIAN GLAND: ADENOMA, LIVER: ADENOMA
  carcinogen call: active; positive
Species: MOUSE, Strain/Sex: B6C3F1/MALE, Route: INHALATION, Dose: 0, 2200 PPM 4 HR/D 5 D/WK FOR 20 WK (STUDY DURATION: 104 WK), Tumor Site: Type of Lesion: HARDERIAN GLAND: ADENOMA, LIVER: HEPATOCELLULAR ADENOMA OR CARCINOMA
  carcinogen call: active; positive
Species: MOUSE, Strain/Sex: B6C3F1/MALE, Route: INHALATION, Dose: 0, 2200 PPM 4 HR/D 5 D/WK FOR 80 WK (STUDY DURATION: 104 WK), Tumor Site: Type of Lesion: LIVER: HEPATOCELLULAR ADENOMA OR CARCINOMA, HARDERIAN GLAND: ADENOMA
  carcinogen call: active; positive
Species: RAT, Strain/Sex: F344/N/FEMALE, Route: INHALATION, Dose: 0, 220, 700, 7000 PPM 6 HR/D 5 D/WK FOR 105 WK (STUDY DURATION: 105 WK), Dose: 0, 220, 700, 7000 PPM 6 HR/D 5 D/WK FOR 105 WK (STUDY DURATION: 105 WK), Tumor Site: Type of Lesion: MAMMARY GLAND: FIBROADENOMA
  carcinogen call: active; positive
Species: RAT, Strain/Sex: F344/N/MALE, Route: INHALATION, Dose: 0, 220, 700, 7000 PPM 6 HR/D 5 D/WK FOR 105 WK (STUDY DURATION: 105 WK), Dose: 0, 220, 700, 7000 PPM 6 HR/D 5 D/WK FOR 105 WK (STUDY DURATION: 105 WK), Tumor Site: Type of Lesion: KIDNEY: ADENOMA OR CARCINOMA, MAMMARY GLAND: FIBROADENOMA OR CARCINOMA, TESTES: ADENOMA, Tumor Site: Type of Lesion: KIDNEY: ADENOMA OR CARCINOMA, MAMMARY GLAND: FIBROADENOMA OR CARCINOMA, TESTES: ADENOMA
  carcinogen call: active; positive
